These results are taken from US20130345215A1, “PYRAZOLOPYRIMIDONE AND PYRAZOLOPYRIDONE INHIBITORS OF TANKYRASE” (Genentech, Inc., priority 2012, published 2013).

pIC50: −log10 of the molar value.

One may read the pIC50 as −log10 of the IC50, conventionally taken in molar units.

This test relates to Wnt stimulated TCF transcriptional activity, HEK293-TS 112 TCF reporter cell line. Description: Tankyrase 1 Assay (Example 119): Wnt3A-stimulated TOPbrite TCF luciferase reporter. The class given is cell-based. As to conditions: Compounds I-59 to I-144, procedure in Example 119 (0.5 ug/mL Wnt3A, 16 hours); read-out: TNKS1 (IC50). The method, then: Inhibition of the Wnt stimulated TCF transcriptional activity by tankyrase inhibitors was determined utilizing a HEK293-TS 112 TCF reporter cell line. A Wnt-responsive luciferase reporter named TOPbrite was constructed by cloning the enhancer element of Super8xTOPFlash containing eight TCF/LEF binding sites into the pGL4.28 vector (Promega) upstream of the minimal promoter element, and selecting for hygromycin B resistance (50 μg/ml). Cells were seeded into 384-well plates in the presence of 0.5 ug/mL of Wnt3A at a density of 20,000 cells per well in 25 ul of F:12 DMEM media supplemented with 10% FBS and 2 mM Glutamax. Cells seeded without the addition of Wnt3A were used as background signal. Compounds of various concentrations were added to cells and incubated at 37 degrees with 5% CO2 for 16 hours. The assay was terminated with the addition of Promega Dual Glo kit per manufacturer's instructions. A ratio of TOPbrite Firefly Luciferase and SV40 Renillla Luciferase was calculated and the background from the neutral wells was subtracted yielding the final normalized measurement of TCF transcriptional activity. Compound IC50s were determined by four-parameter curve fitting using GeneData software.
For orientation: Reporter assays use an easily measured gene product as a stand-in for the process of interest.
As to “6-[4-(2-fluorophenyl)-1- piperidyl]-1-methyl-5H- pyrazolo[3 4-d]pyrimidin- 4-one [Compound I-88]”, the negative-log IC50 (pIC50) is 7.71.
Take “6-[4-(3-fluorophenyl)-1- piperidyl]-1-methyl-5H- pyrazolo[3 4-d]pyrimidin- 4-one [Compound I-84]”: the pIC50 was 7.77.
`C[C@H](N)C(=O)OCCOc1cc(F)c(N2CCN(c3nc4c(cnn4C)c(=O)[nH]3)CC2)c(F)c1` [Compound I-59, 2-[3 5-difluoro-4-[4-(1-methyl-4-oxo-5H-pyrazolo[3 4-d]pyrimidin-6-yl)piperazin-1-yl]phenoxy]ethyl (2S)-2-aminopropanoate]: the pIC50 was 8.43.
With `CN1CCN(Cc2cc(F)c(N3CCN(c4nc5c(cnn5C)c(=O)[nH]4)CC3)c(F)c2)CC1` [Compound I-60, 6-[4-[2 6-difluoro-4-[(4-methylpiperazin-1-yl)methyl]phenyl]piperazin-1-yl]-1-methyl-5H-pyrazolo[3 4-d]pyrimidin-4-one], the negative logarithm of the IC50 (pIC50) is 8.42.
Consider `CC(C)[C@H](N)C(=O)OCCOc1cc(F)c(N2CCN(c3nc4c(cnn4C)c(=O)[nH]3)CC2)c(F)c1` [Compound I-61, 2-[3 5-difluoro-4-[4-(1-methyl-4-oxo-5H-pyrazolo[3 4-d]pyrimidin-6-yl)piperazin-1-yl]phenoxy]ethyl (2S)-2-amino-3-methyl-butanoate], for which the pIC50 was 8.38.
In the case of `Cn1ncc2c(=O)[nH]c(N3CCN(c4c(F)cc(OCCN5CCCCC5)cc4F)CC3)nc21` [Compound I-62, 6-{4-[2,6-Difluoro-4-(2-piperidin-1-yl-ethoxy)-phenyl]-piperazin-1-yl}-1-methyl-1,5-dihydro-pyrazolo[3,4-d]pyrimidin-4-one], the pIC50 was 8.30.
For `Cn1ncc2c(=O)[nH]c(N3CCN(c4c(F)cc(C(O)CO)cc4F)CC3)nc21` (stereo not shown) [Compound I-63, 6-[4-[4-(1 2-dihydroxyethyl)-2 6-difluoro-phenyl]piperazin-1-yl]-1-methyl-5H-pyrazolo[3 4-d]pyrimidin-4-one], the pIC50 is 8.28.
On to `Cn1ncc2c(=O)[nH]c(N3CCN(c4c(F)cc(OC(CO)CCl)cc4F)CC3)nc21` (stereo not shown) [Compound I-64, 6-[4-[4-[1-(chloromethyl)-2-hydroxy-ethoxy]-2 6-difluoro-phenyl]piperazin-1-yl]-1-methyl-5H-pyrazolo[3 4-d]pyrimidin-4-one], for which the pIC50 was 8.19.
Turning to `Cn1ncc2c(=O)[nH]c(N3CCN(c4c(F)cc(CC(O)CO)cc4F)CC3)nc21` (stereo not shown) [Compound I-66, 6-[4-[4-(2 3-dihydroxypropyl)-2 6-difluoro-phenyl]piperazin-1-yl]-1-methyl-5H-pyrazolo[3 4-d]pyrimidin-4-one], the pIC50 was 8.18.
With `Cn1ncc2c(=O)[nH]c(N3CCN(c4c(F)cc(CN5CCOCC5)cc4F)CC3)nc21` [Compound I-67, 6-[4-[2 6-difluoro-4-(morpholinomethyl)phenyl]piperazin-1-yl]-1-methyl-5H-pyrazolo[3 4-d]pyrimidin-4-one], the pIC50 is 8.16.
Under `Cn1ncc2c(=O)[nH]c(N3CCN(c4c(F)cc(OCC(O)CO)cc4F)CC3)nc21` (stereo not shown) [Compound I-68, 6-[4-[4-(2 3-dihydroxypropoxy)-2 6-difluoro-phenyl]piperazin-1-yl]-1-methyl-5H-pyrazolo[3 4-d]pyrimidin-4-one] stands 8.15; under `CC(O)c1cc(F)c(N2CCN(c3nc4c(cnn4C)c(=O)[nH]3)CC2)c(F)c1` (stereo not shown) [Compound I-69, 6-[4-[2 6-difluoro-4-(1-hydroxyethyl)phenyl]piperazin-1-yl]-1-methyl-5H-pyrazolo[3 4-d]pyrimidin-4-one], 8.11; under `Cn1ncc2c(=O)[nH]c(N3CCN(c4c(F)cc(OC5CCS(=O)(=O)CC5)cc4F)CC3)nc21` [Compound I-70, 6-[4-[4-(1 1-dioxothian-4-yl)oxy-2 6-difluoro-phenyl]piperazin-1-yl]-1-methyl-5H-pyrazolo[3 4-d]pyrimidin-4-one], 8.10.
On to `COC(C)c1cc(F)c(N2CCN(c3nc4c(cnn4C)c(=O)[nH]3)CC2)c(F)c1` (stereo not shown) [Compound I-71, 6-[4-[2 6-difluoro-4-(1-methoxyethyl)phenyl]piperazin-1-yl]-1-methyl-5H-pyrazolo[3 4-d]pyrimidin-4-one], for which the pIC50 is 8.08.
For the molecule `Cn1ncc2c(=O)[nH]c(N3CCN(c4c(F)cc(OCC5C[S+]([O-])C5)cc4F)CC3)nc21` (stereo not shown) [Compound I-72, 6-[4-[2 6-difluoro-4-[(1-oxothietan-3-yl)methoxy]phenyl]piperazin-1-yl]-1-methyl-5H-pyrazolo[3 4-d]pyrimidin-4-one], the pIC50 is 8.07.
The same measure for `Cn1ncc2c(=O)[nH]c(N3CCN(c4c(F)cc(O)cc4F)CC3)nc21` [Compound I-73, 6-[4-(2 6-difluoro-4-hydroxy-phenyl)piperazin-1-yl]-1-methyl-5H-pyrazolo[3 4-d]pyrimidin-4-one]: 8.06; for `Cn1ncc2c(=O)[nH]c(N3CCN(c4c(F)cc(OCCN5CCOCC5)cc4F)CC3)nc21` [Compound I-74, 6-[4-[2 6-difluoro-4-(2-morpholinoethoxy)phenyl]piperazin-1-yl]-1-methyl-5H-pyrazolo[3 4-d]pyrimidin-4-one]: 8.05.
For the molecule `Cn1ncc2c(=O)[nH]c(N3CCN(c4c(F)cc(OCCOP(=O)(O)O)cc4F)CC3)nc21` [Compound I-75, 2-[3 5-difluoro-4-[4-(1-methyl-4-oxo-5H-pyrazolo[3 4-d]pyrimidin-6-yl)piperazin-1-yl]phenoxy]ethyl dihydrogen phosphate], the pIC50 was 8.02.
In the case of `Cn1ncc2c(=O)[nH]c(N3CCN(c4c(F)cc(OC5CCOCC5)cc4F)CC3)nc21` [Compound I-76, 6-[4-(2 6-difluoro-4-tetrahydropyran-4-yloxy-phenyl)piperazin-1-yl]-1-methyl-5H-pyrazolo[3 4-d]pyrimidin-4-one], the pIC50 was 7.95.
For `COCCOc1cc(F)c(N2CCN(c3nc4[nH]ncc4c(=O)[nH]3)CC2)c(F)c1` [Compound I-77, 6-[4-[2 6-difluoro-4-(2-methoxyethoxy)phenyl]piperazin-1-yl]-1 5-dihydropyrazolo[3 4-d]pyrimidin-4-one], the pIC50 is 7.93.
Consider `Cn1ncc2c(=O)[nH]c(N3CCN(c4c(F)cc(OCCO)cc4F)CC3)nc21` [Compound I-78, 6-[4-[2 6-difluoro-4-(2-hydroxyethoxy)phenyl]piperazin-1-yl]-1-methyl-5H-pyrazolo[3 4-d]pyrimidin-4-one], for which the pIC50 is 7.92.
In the case of `Cn1ncc2c(=O)[nH]c(N3CCN(c4c(F)cc(CO)cc4F)CC3)nc21` [Compound I-79, 6-[4-[2 6-difluoro-4-(hydroxymethyl)phenyl]piperazin-1-yl]-1-methyl-5H-pyrazolo[3 4-d]pyrimidin-4-one], the pIC50 was 7.88.
Consider `O=c1[nH]c(N2CCN(c3c(F)cccc3F)CC2)nc2[nH]ncc12` [Compound I-80, 6-[4-(2 6-difluorophenyl)piperazin-1-yl]-1 5-dihydropyrazolo[3 4-d]pyrimidin-4-one], for which the pIC50 is 7.85.
Under `Cn1ncc2c(=O)[nH]c(N3CCC(c4[nH]ncc4S(C)(=O)=O)CC3)nc21` [Compound I-81, 1-methyl-6-[4-(4-methylsulfonyl-1H-pyrazol-5-yl)-1-piperidyl]-5H-pyrazolo[3 4-d]pyrimidin-4-one] stands 7.84; under `Cn1ncc2c(=O)[nH]c(N3CCC(C)(c4cc[nH]n4)CC3)nc21` [Compound I-82, 1-methyl-6-[4-methyl-4-(1H-pyrazol-3-yl)-1-piperidyl]-5H-pyrazolo[3 4-d]pyrimidin-4-one], 7.82.
`COCCOc1cc(F)c(C2(O)CCN(c3nc4c(cnn4C)c(=O)[nH]3)CC2)c(F)c1` [Compound I-83, 6-[4-[2 6-difluoro-4-(2-methoxyethoxy)phenyl]-4-hydroxy-1-piperidyl]-1-methyl-5H-pyrazolo[3 4-d]pyrimidin-4-one]: the negative logarithm of the IC50 (pIC50) was 7.82.
In the case of `Cn1ncc2c(=O)[nH]c(N3CCN(c4c(F)cc(OC5COC5)cc4F)CC3)nc21` [Compound I-85, 6-[4-[2 6-difluoro-4-(oxetan-3-yloxy)phenyl]piperazin-1-yl]-1-methyl-5H-pyrazolo[3 4-d]pyrimidin-4-one], the pIC50 was 7.77.
In the case of `COCCOc1cc(F)c(C2(C#N)CCN(c3nc4c(cnn4C)c(=O)[nH]3)CC2)c(F)c1` [Compound I-86, 4-[2 6-difluoro-4-(2-methoxyethoxy)phenyl]-1-(1-methyl-4-oxo-5H-pyrazolo[3 4-d]pyrimidin-6-yl)piperidine-4-carbonitrile], the pIC50 was 7.73.
Consider `Cn1ncc2c(=O)[nH]c(N3CCN(c4c(F)cc(OC5CC[S+]([O-])CC5)cc4F)CC3)nc21` (stereo not shown) [Compound I-87, 6-[4-[2 6-difluoro-4-(1-oxothian-4-yl)oxy-phenyl]piperazin-1-yl]-1-methyl-5H-pyrazolo[3 4-d]pyrimidin-4-one], for which the pIC50 is 7.73.
On to `Cn1ncc2c(=O)[nH]c(N3CCC(C)(c4ccn(CCO)n4)CC3)nc21` [Compound I-89, 6-[4-[1-(2-hydroxyethyl)pyrazol-3-yl]-4-methyl-1-piperidyl]-1-methyl-5H-pyrazolo[3 4-d]pyrimidin-4-one], for which the pIC50 is 7.66.
Turning to `Cn1ccc(C2(C)CCN(c3nc4c(cnn4C)c(=O)[nH]3)CC2)n1` [Compound I-90, 1-methyl-6-[4-methyl-4-(1-methylpyrazol-3-yl)-1-piperidyl]-5H-pyrazolo[3 4-d]pyrimidin-4-one], the pIC50 was 7.63.
